Results taken from US9296694B2, “Azacyclic compounds” (ACADIA Pharmaceuticals Inc., priority 2000, dated 2016).
Where a name gives a salt, the structure may show the parent alone.

Key:
Assay in all cases: R-SAT selectivity profile of 26HCH16D
Type in all cases: cell-based
5HT1A [1] = target: T1, 5HT1A (Homo sapiens, UniProt P08908); settings: 4 doses in duplicate (3, 30, 300, 3000 nM)
T1 construct: expressed in transfected cells; host or cells: NIH3T3, pSI vector
T1 sequence (P08908 1-422): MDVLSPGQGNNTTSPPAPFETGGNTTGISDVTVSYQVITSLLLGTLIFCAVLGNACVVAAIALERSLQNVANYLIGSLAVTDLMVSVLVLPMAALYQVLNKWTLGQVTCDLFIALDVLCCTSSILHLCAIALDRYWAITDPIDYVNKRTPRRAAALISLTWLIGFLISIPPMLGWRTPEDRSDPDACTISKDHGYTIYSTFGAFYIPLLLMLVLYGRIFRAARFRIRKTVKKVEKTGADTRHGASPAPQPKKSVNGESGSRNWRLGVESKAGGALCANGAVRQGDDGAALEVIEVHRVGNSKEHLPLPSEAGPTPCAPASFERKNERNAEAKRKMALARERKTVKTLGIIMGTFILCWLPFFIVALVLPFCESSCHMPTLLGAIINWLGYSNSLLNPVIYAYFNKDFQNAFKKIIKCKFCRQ
Method: (§1) The functional receptor assay, Receptor Selection and Amplification Technology (R-SAT), was used (with minor modifications from that previously described U.S. Pat. No. 5,707,798) to screen compounds for efficacy at the 5-HT2A receptor. Briefly, NIH3T3 cells were grown in 96 well tissue culture plates to 70-80% confluence. Cells were transfected for 12-16 hours with plasmid DNAs using superfect (Qiagen Inc.) as per manufacture's protocols. R-SAT's were generally performed with 50 ng/well of receptor and 20 ng/well of Beta-galactosidase plasmid DNA. All receptor and G-protein constructs used were in the pSI mammalian expression vector (Promega Inc) as described in U.S. Pat. No. 5,707,798. The 5HT2A receptor gene was amplified by nested PCR from brain cDNA using the oligodeoxynucleotides based on the published sequence (see Saltzman et. al. Biochem. Biophys. Res. Comm. 181:1469-78 (1991)). Large-scale transfections, cells were transfected for 12-16 hours, then trypsinized and frozen in DMSO. Frozen cells were later thawed, plated at 10,000-40,000 cells per well of a 96 well plate that contained drug. With both methods, cells were then grown in a humidified atmosphere with 5% ambient CO2 for five days. Media was then removed from the plates and marker gene activity was measured by the addition of the beta-galactosidase substrate ONPG (in PBS with 5% NP-40). The resulting colorimetric reaction was measured in a spectrophotometric plate reader (Titertek Inc.) at […]. All data were analyzed using the computer program XLFit (IDBSm). Efficacy is the percent maximal repression compared to repression by a control compound (ritanserin in the case of 5HT2A). pIC50 is the negative of the log(IC50), where IC50 is the calculated concentration in Molar that produces 50% maximal repression.
(§2) R-SAT assays (as described in Example 42) were carried out with cells transfected with receptors (listed below) to determine the receptor selectivity profile for compound 26HCH16D. 5HT2A inverse agonist data (IC50 nM; % efficacy) were derived from detailed dose response curves (7 points in triplicate).

5HT1A [2] = target: T2, 5HT1A (Rattus norvegicus, UniProt P19327); settings: Antagonist; 4 doses in duplicate (3, 30, 300, 3000 nM)
T2 construct: expressed in transfected cells; host or cells: NIH3T3, pSI vector
T2 sequence (P19327 1-422): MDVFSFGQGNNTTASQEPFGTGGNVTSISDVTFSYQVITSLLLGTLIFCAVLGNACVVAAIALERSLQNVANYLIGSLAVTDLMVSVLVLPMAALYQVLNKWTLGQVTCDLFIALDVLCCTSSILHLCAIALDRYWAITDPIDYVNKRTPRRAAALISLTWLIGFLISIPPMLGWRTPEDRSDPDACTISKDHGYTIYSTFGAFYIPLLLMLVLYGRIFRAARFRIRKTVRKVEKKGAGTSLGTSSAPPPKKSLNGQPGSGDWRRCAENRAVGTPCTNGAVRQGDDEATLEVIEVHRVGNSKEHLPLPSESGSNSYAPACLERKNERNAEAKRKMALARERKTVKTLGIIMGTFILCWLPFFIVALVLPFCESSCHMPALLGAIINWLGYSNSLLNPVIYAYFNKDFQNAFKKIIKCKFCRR
Method: as §1, §2

5HT2B = target: T3, 5HT2B (Homo sapiens, UniProt P41595); settings: Antagonist; 4 dose profiling
T3 construct: expressed in transfected cells; host or cells: NIH3T3, pSI vector
Method: as §1, §2

alpha1a/D = target: T4, alpha1a/D (Rattus norvegicus, UniProt P23944); settings: 4 doses in duplicate (3, 30, 300, 3000 nM)
T4 construct: expressed in transfected cells; host or cells: NIH3T3, pSI vector
T4 sequence (P23944 1-561): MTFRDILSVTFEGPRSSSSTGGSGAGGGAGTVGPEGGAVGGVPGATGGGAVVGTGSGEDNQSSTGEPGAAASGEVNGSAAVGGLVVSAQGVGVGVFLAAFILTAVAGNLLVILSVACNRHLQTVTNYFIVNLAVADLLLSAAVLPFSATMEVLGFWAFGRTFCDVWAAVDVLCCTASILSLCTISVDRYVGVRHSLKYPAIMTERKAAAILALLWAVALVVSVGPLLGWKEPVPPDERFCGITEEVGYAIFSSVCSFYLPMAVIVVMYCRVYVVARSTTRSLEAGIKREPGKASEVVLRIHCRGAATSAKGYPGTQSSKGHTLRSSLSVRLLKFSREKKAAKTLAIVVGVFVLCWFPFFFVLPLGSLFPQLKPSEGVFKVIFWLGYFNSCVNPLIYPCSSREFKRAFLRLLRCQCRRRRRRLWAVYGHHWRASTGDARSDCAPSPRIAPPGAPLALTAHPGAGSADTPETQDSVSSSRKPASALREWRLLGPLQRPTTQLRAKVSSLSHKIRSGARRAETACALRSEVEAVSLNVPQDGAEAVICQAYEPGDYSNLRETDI
Method: as §1, §2

T3 sequence (P41595 whole entry): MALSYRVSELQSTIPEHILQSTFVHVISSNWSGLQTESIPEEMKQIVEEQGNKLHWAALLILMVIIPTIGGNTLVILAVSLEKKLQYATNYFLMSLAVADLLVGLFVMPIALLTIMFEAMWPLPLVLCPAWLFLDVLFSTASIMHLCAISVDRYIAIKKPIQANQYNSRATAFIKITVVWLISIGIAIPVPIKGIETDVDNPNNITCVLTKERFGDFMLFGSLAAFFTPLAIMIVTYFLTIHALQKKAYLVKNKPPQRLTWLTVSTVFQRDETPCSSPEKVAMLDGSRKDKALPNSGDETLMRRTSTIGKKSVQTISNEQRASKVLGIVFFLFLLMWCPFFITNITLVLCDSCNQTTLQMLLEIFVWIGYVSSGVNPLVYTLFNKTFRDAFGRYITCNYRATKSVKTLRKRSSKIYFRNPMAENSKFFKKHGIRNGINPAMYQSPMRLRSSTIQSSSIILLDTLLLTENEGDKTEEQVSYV

`Cc1ccc(CN(C(=O)NCc2ccccc2)C2CCN(Cc3ccccc3)CC2)cc1` [Compound 26HCH16D, N-((4-Methylphenyl)methyl)-N-(1-(phenylmethyl)piperidin-4-yl)-N′-phenylmethylcarbamide hydrochloride] was tested, and the Efficacy (5HT1A [1]; Agonist) was “nr (nr=activity less than 30% at all doses tested (3, 30, 300, 3000 nM), therefore EC50/IC50 greater than 3000 nM))”, the Efficacy (5HT1A [1]; Antagonist) was “nr (nr=activity less than 30% at all doses tested (3, 30, 300, 3000 nM), therefore EC50/IC50 greater than 3000 nM))” and the Efficacy (5HT1A [2]) was “nr (nr=activity less than 30% at all doses tested (3, 30, 300, 3000 nM), therefore EC50/IC50 greater than 3000 nM))”. The “initial concentration at which at least 30% efficacy observed” value (5HT2B) was 3000 nM, the Efficacy (alpha1a/D; Agonist) was “nr (nr=activity less than 30% at all doses tested (3, 30, 300, 3000 nM), therefore EC50/IC50 greater than 3000 nM))” and the Efficacy (alpha1a/D; Antagonist) was “nr (nr=activity less than 30% at all doses tested (3, 30, 300, 3000 nM), therefore EC50/IC50 greater than 3000 nM))”.
